Measurements from ChEMBL document CHEMBL1795274, “Synthesis and antiviral activity of cyclopropyl-spirocarbocyclic adenosine, (4R,5S,6R,7R)-4-(6-amino-9H-purin-9-yl)-7-(hydroxymethyl)spiro[2.4]heptane-5,6-diol against hepatitis C virus” (Bioorg Med Chem Lett, 2011).
The source made the active and inactive calls. The rule behind the calls is not given here.

Assays:
Measles morbillivirus [1] = experiment: Antiviral activity against Measles virus infected in human HuH7 cells assessed as reduction of viral level by neutral red assay; format: functional, organism-based; details: Huh-7
[2] = Selectivity index, ratio of CC50 for human HuH7 cells to EC50 for HCV 1a; design: species or system Huh-7
Influenza A virus [3] = experiment: Antiviral activity against Influenza A virus H1N1; format: functional, organism-based
[4] = Cytotoxicity against human HuH7 cells; format: cell-based, Huh-7
Human alphaherpesvirus 1 = experiment: Antiviral activity against HSV1; format: functional, organism-based
Cowpox virus = experiment: Antiviral activity against Cowpox virus; format: functional, organism-based
Vaccinia virus = experiment: Antiviral activity against Vaccinia virus infected in human HuH7 cells assessed as reduction of virus-induced cytopathic-effect; format: functional, organism-based; details: Orthopoxvirus vaccinia, Huh-7
SARS-CoV = experiment: Antiviral activity against SARS coronavirus; format: functional, organism-based; details: Severe acute respiratory syndrome-related coronavirus
[5] = Selectivity index, ratio of CC50 for human HuH7 cells to EC50 for Adenovirus by neutral red assay; format: toxicity, cell-based, Huh-7; details: read-out: Ratio CC50/EC50
Enterovirus = experiment: Antiviral activity against Rhinovirus; format: functional, organism-based
Yellow fever virus = experiment: Antiviral activity against Yellow fever virus; format: functional, organism-based
[6] = Selectivity index, ratio of CC50 for human HuH7 cells to EC50 for Adenovirus by visual assay; format: toxicity, cell-based, Huh-7; details: read-out: Ratio CC50/EC50
Influenza A virus [7] = experiment: Antiviral activity against Influenza A virus H3N2; format: functional, organism-based
Human alphaherpesvirus 3 = experiment: Antiviral activity against Varicella zoster virus; format: functional, organism-based
[8] = Cytotoxicity against human HuH7 cells expressing E2 glycoprotein assessed as reduction of rRNA level after 5 days; format: cell-based, Huh-7
[9] = system: Venezuelan equine encephalitis virus; experiment: Antiviral activity against Venezuelan equine encephalitis virus; format: functional, organism-based
Influenza A virus [10] = experiment: Antiviral activity against Influenza A virus H5N1; format: functional, organism-based
Hepatitis B virus = experiment: Antiviral activity against Hepatitis B virus; format: functional, organism-based
Hepatitis C virus [11] = experiment: Antiviral activity against HCV1b infected in human Huh7 cells expressing E2 glycoprotein assessed as inhibition of viral RNA replication after 5 days; format: functional, organism-based, Hepacivirus hominis; details: genotype 1b, Huh-7, 120 h
unidentified adenovirus [12] = experiment: Antiviral activity against Adenovirus infected in human HuH7 cells assessed as reduction of viral level by visual assay; format: functional, organism-based; details: Huh-7
Human respirovirus 3 = experiment: Antiviral activity against Human parainfluenza virus 3; format: functional, organism-based
Hepatitis C virus [13] = experiment: Antiviral activity against HCV1a infected in human HuH7 cells expressing E2 glycoprotein assessed as inhibition of viral RNA replication after 5 days; format: functional, organism-based, Hepacivirus hominis; details: subtype 1a, Huh-7, 120 h
West Nile virus = experiment: Antiviral activity against West Nile virus; format: functional, organism-based
Measles morbillivirus [14] = experiment: Antiviral activity against Measles virus infected in human HuH7 cells assessed as reduction of viral level by visual assay; format: functional, organism-based; details: Huh-7
[15] = Selectivity index, ratio of CC50 for human HuH7 cells to EC50 for Vaccinia virus; format: toxicity, cell-based, Huh-7; details: read-out: Ratio CC50/EC50
unidentified adenovirus [16] = experiment: Antiviral activity against Adenovirus infected in human HuH7 cells assessed as reduction of viral level by neutral red assay; format: functional, organism-based; details: Huh-7
Human alphaherpesvirus 2 = experiment: Antiviral activity against HSV2; format: functional, organism-based
[17] = Selectivity index, ratio of CC50 for human HuH7 cells to EC50 for Measles virus by neutral red assay; format: toxicity, cell-based, Huh-7; details: read-out: Ratio CC50/EC50
[18] = Selectivity index, ratio of CC50 for human HuH7 cells to EC50 for HCV 1b; design: species or system Huh-7
[19] = Selectivity index, ratio of CC50 for human HuH7 cells to EC50 for Measles virus by visual assay; format: toxicity, cell-based, Huh-7; details: read-out: Ratio CC50/EC50

Compound: Nc1ncnc2c1ncn2[C@H]1[C@H](O)[C@H](O)[C@@H](CO)C12CC2
- EC50 (Measles morbillivirus [1]): 9000 nM
- Ratio CC50/EC50 [2]: >366
- Activity (Influenza A virus [3]): inactive
- CC50 [4]: > 10000 nM
- Activity (Human alphaherpesvirus 1): inactive
- Activity (Cowpox virus): inactive
- EC50 (Vaccinia virus): 42700 nM
- Activity (SARS-CoV): inactive
- selectivity ratio [5]: 4
- Activity (Enterovirus): inactive
- Activity (Yellow fever virus): inactive
- selectivity ratio [6]: 3
- Activity (Influenza A virus [7]): inactive
- Activity (Human alphaherpesvirus 3): inactive
- CC50 at 120 h [8]: > 100000 nM
- Activity [9]: inactive
- Activity (Influenza A virus [10]): inactive
- Activity (Hepatitis B virus): inactive
- EC50 (Hepatitis C virus [11]): 368 nM
- EC90 (Hepatitis C virus [11]): 1200 nM
- EC50 (unidentified adenovirus [12]): 3000 nM
- Activity (Human respirovirus 3): inactive
- EC50 (Hepatitis C virus [13]): 273 nM
- EC90 (Hepatitis C virus [13]): 3000 nM
- Activity (West Nile virus): inactive
- EC50 (Measles morbillivirus [14]): 7000 nM
- selectivity ratio [15]: > 7.1
- EC50 (unidentified adenovirus [16]): 3000 nM
- Activity (Human alphaherpesvirus 2): inactive
- selectivity ratio [17]: 5
- Ratio CC50/EC50 [18]: >272
- selectivity ratio [19]: 2

Compound: C[C@@]1(O)[C@H](O)[C@@H](CO)O[C@H]1n1ccc(N)nc1=O
- Ratio CC50/EC50 [2]: >272
- CC50 at 120 h [8]: > 300000 nM
- EC50 (Hepatitis C virus [13]): 1700 nM
- EC90 (Hepatitis C virus [13]): 8200 nM
